Measured values as given in PubChem BioAssay (NCI).
“And” between values parts separate entries of the source, which are not always exact repeats. Identical values can stand only once.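 Grown in 96-well plates, cells were treated for 48 hours with each compound at five concentrations. Insufficient inhibition: endpoint recorded as highest concentration tested. GI50 is the concentration that inhibits growth by half. TGI: total growth inhibition.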

How the values were obtained:
Assay in all cases: NCI tumour cell line growth inhibition, 48 h
[1] = tested on: SNB-78 CNS
[2] = tested on: LXFL 529 NSCLC
[3] = tested on: T-47D breast
[4] = tested on: HS 578T breast
[5] = tested on: NCI/ADR-RES ovarian
[6] = tested on: DLD-1 colon
[7] = tested on: XF 498 CNS
[8] = tested on: RXF-631 renal
[9] = tested on: MDA-N

Structure (SMILES)	TGI [1] [µM]	TGI [2] [µM]	GI50 [3] [µM]	TGI [3] [µM]	GI50 [4]	TGI [4]	GI50 [5] [µM]	TGI [5] [µM]	TGI [6] [µM]	TGI [7] [µM]	TGI [8] [µM]	TGI [9] [µM]	GI50 [9] [µM]
N#CC(C#N)=c1ccc(=C2NCC3CCCN23)cc1 (stereo not drawn)	> 100	> 100											
COc1cc(C(=O)/C=C/c2sc(Cl)nc2Cl)cc(OC)c1OC			2.14	5.35	2.02 µM	5.54 µM	1.97	4.07					
COc1ccc(-n2/c(=N/C(=S)N(C)C)ss/c2=N\C(=S)N(C)C)cc1	> 100												
CC(=O)NC1=C(NCC(C)(C)C)C(=O)c2ccccc2C1=O	> 100	> 100							> 100	65.5			
O=C1NC2(CCCCC2)C2CCCCC(O)C12 (stereo not drawn)	> 100	> 100							> 100		> 100		
Clc1cccc(Cc2cn3cc(-c4ccccc4)nc3s2)c1Cl			0.963	> 100	17.4 µM	> 100 µM	76.4	> 100					
O=C(NCCNc1nccc(-c2c(-c3cccc(O)c3)nc3sccn23)n1)c1ccccc1O			3.65	20.5	3.15 µM	16 µM	6.64	70.1					
O=c1n(CC2CO2)c(=O)n(CC2CO2)n1CC1CO1 (stereo not drawn)			6.64	> 100	> 100 µM	> 100 µM	19.5	> 100					
NC1CCC(Nc2nc(NCc3ccc(-c4ccco4)nc3)c3ncn(C4CCCC4)c3n2)CC1 (stereo not drawn)			0.0249		0.0205 µM	0.0955 µM and 0.347 µM		1.39					
c1cc2c(cc1NC1=NCCO1)CCC2				> 10		> 10 µM						> 10	
CNC(=O)c1cc(Oc2ccc3nc(NC(=O)Nc4ccc(Cl)c(C(F)(F)F)c4)sc3c2)ccn1			0.723	3.65	1.53 µM	6.27 µM							
C=CCc1cc(OC)c2c(c1)C(O)CC(c1ccc(OC)c(OC)c1)O2 (stereo not drawn)	> 100	> 100							> 100				
C=C(CNCCO)[C@@H]1CC[C@]2(CO)CC[C@]3(C)[C@H](CC[C@@H]4[C@@]5(C)CCC(N)C(C)(C)[C@@H]5CC[C@]43C)[C@@H]12 (stereo partly drawn)			2.07	3.95	2.33 µM	6.92 µM	17	33.8					
Cn1ccnc1C(=O)/C=C/c1ccc(CC(=O)Nc2ccc(Br)cc2)cc1			5.5	> 16.7	7.83 µM	> 16.7 µM	5.08	> 16.7					
O=C(O)CCSC(=O)Nc1cccc(F)c1	> 100	> 100											
O=C1/C(=C/c2ccc([N+](=O)[O-])cc2)COc2ccc(O)c(O)c21			1.32	3.65	1.94 µM	4.75 µM	2.66	9.33					
Cc1cc(=O)[nH]c2cc3oc4ccccc4c3cc12				> 100		> 100 µM		> 100				> 100	
NC(CCc1nc(-c2ccc(Cl)cc2)cs1)C(=O)O (stereo not drawn)	> 100	> 100							> 100		> 100		
CC1CN1P1(N2CC2C)=NP(N2CC2C)(N2CC2C)=NP(N2CC2C)(N2CC2C)=N1 (stereo not drawn)		> 50							> 50	> 50			
O=C1c2cccnc2-c2nc(-c3ccccc3[N+](=O)[O-])cc3c2c1nc1ccccc13			5.3	> 100	31.2 µM	86.4 µM	22.3	> 69.3				26.1	12.2
CSc1ccc(/C=C2\CN(C)C/C(=C\c3ccc(SC)cc3)C2=O)cc1	> 100	35.7							> 100	58			
COc1ccc(-c2cc(=O)c3ccc(O)cc3o2)c(OC)c1OC		> 100							> 100	> 100			

Structure (SMILES)	TGI [1] [µM]	TGI [2] [µM]	GI50 [3] [µM]	TGI [3] [µM]	GI50 [4]	TGI [4]	GI50 [5] [µM]	TGI [5] [µM]	TGI [6] [µM]	TGI [7] [µM]	TGI [8] [µM]	TGI [9] [µM]	GI50 [9] [µM]
COc1ccccc1NC(=O)CC(=O)n1nc(C)c(N=Nc2ccccc2C(=O)O)c1C	> 100	> 100							> 100	> 100			
O=C(CSC(=S)N1CCCCC1)Nc1nc2c(s1)CCCC2	> 100	> 100							> 100	71.3			
COc1ccc(C2=CSc3cc(Cl)c(C)cc3S(=O)(=O)N2C(C)=O)cc1					55.2 µM	> 100 µM	26.8	66.7					
Oc1ccc(Cl)cc1-c1cc(-c2ccccc2Cl)[nH]n1			1.61	> 100	7.85 µM	> 100 µM	8.55	> 100					
CCOC(=O)C(Sc1ccccc1)c1c(OC)cc(=O)oc1/C=[N+](/[O-])c1ccc(N(C)C)cc1 (stereo not drawn)	78.9	27.2							> 100	27.7			
O=C(O)C(Cc1ccccc1)N1C(=O)N/C(=C\c2ccc(F)cc2)C1=O (stereo not drawn)	> 100	> 100							> 100				
O=[N+]([O-])c1cnc(Sc2ccncn2)s1			2.16	4.68	2.37 µM	5.59 µM	11.3	38.3					
CN(C)CCCNC1=C(Cl)C(=O)c2ccccc2C1=O			2.94	9.33	2.2 µM	7.02 µM	7.93	31.8					
CC1=C(C(=O)Nc2ccc(F)c(Cl)c2)C(c2ccc(Cl)cc2)NC(=O)N1 (stereo not drawn)			> 100	> 100	21.5 µM	51.1 µM	25.4	75.2					
COc1ccc(NC(=O)c2cc(OC)cc(OC)c2)cc1	83.3	> 100							> 100	> 100			
CCOC(=O)C1=C(C)CC2C(=O)OC(=O)C2C1(C)C (stereo not drawn)		> 100							> 100				
O=C(/C=C/c1ccccc1Cl)c1ccc(Cl)c(Cl)c1	32.7	29.6							30.1				
CCCCCCCC(=O)SCC/C=C/[C@@H]1CC(=O)NCc2cccc(n2)C2=N[C@@](C)(CS2)C(=O)N[C@@H](C(C)C)C(=O)N1			0.412	3	0.378 µM	> 33.3 µM	31.7	> 33.3					
CN(C)c1ccc(-c2cc(-c3ccc(Nc4nc(Nc5ccc(Cl)cc5)nc(Nc5ccc(Cl)cc5)n4)cc3)no2)cc1			3.69	78.5	3.97 µM	> 100 µM	5.38	88.6					
COc1cc2cnc3c4cc(OC(C)C)c(OC)cc4ccc3c2cc1OC		> 100							> 100	> 100			
COC(=O)[C@@H](C)C[C@H](Cc1ccc(F)cc1)NC(=O)c1csc([C@@H](C[C@H](C(C)C)N(C)C(=O)[C@@H](NC(=O)[C@H]2CCCCN2C)C(C)C)OC(C)=O)n1					0.00102 µM and 0.00612 µM			> 16.7					
CNC(=O)c1ccccc1Nc1nc(Nc2ccc(N3CCOCC3)cc2OC)ncc1Cl			1.28	> 36.1	1.7 µM	> 26.4 µM	1.11	> 50.7					
CCOc1ccccc1-n1c(CN2CCN(C(=O)COc3ccc(CNCCCCCCN4C5CCCC4CC(OC(=O)Nc4cc(C)ccc4OC)C5)cc3)CC2)nc2ccccc2c1=O (stereo not drawn)			1.78	3.88	1.86 µM	3.94 µM	7.04	19.6					
COc1ccc(/C=C\c2cc(OC)c3c(c2)OCO3)c(O)c1O	16	3.74							23	26.6			
COc1cc2nc(-c3ccc(C(F)(F)F)cc3)cc(OCCCN3CCC(O)CC3)c2cc1OC			2.97	19.1	3.75 µM	20.9 µM	0.847	22.7					
Cc1ccc(-c2nnc(-c3ccc4ccccc4c3)o2)cc1				> 100		> 100 µM		> 79.2				> 100	
COc1ccc(-c2cc(-c3ccc(Nc4nc(Nc5ccccc5)nc(Nc5ccc(Cl)cc5)n4)cc3)nc(N)c2C#N)cc1			0.733	1.65	1.21 µM	5.08 µM	3.66	> 43.1					

Structure (SMILES)	TGI [1] [µM]	TGI [2] [µM]	GI50 [3] [µM]	TGI [3] [µM]	GI50 [4]	TGI [4]	GI50 [5] [µM]	TGI [5] [µM]	TGI [6] [µM]	TGI [7] [µM]	TGI [8] [µM]	TGI [9] [µM]	GI50 [9] [µM]
COC(=O)[C@@]12C3=NO[C@]1(C(=O)OC)C(O[Si](C)(C)C(C)(C)C)[C@H]1OC(C)(C)O[C@H]1[C@@H]2C(OCc1ccccc1)CC3 (stereo partly drawn)		> 100							> 100				
COc1cc2c(c(OC)c1O)C(=O)C(OC)C(c1ccc(O)c(O)c1)O2 (stereo not drawn)			0.513	92.4	0.0889 µM	46.1 µM	0.203	> 100					
CCN(CC)CC(C(=O)Nc1c(C)cccc1C)/C(C)=N\NC(=O)C[N+](C)(C)C (stereo not drawn)	> 100	> 100							> 100	> 100			
CC(=O)[O][Hg][c]1c(N)c(C)cc(C)c1F			1.39	4.47	1.6 µM	6.85 µM	3.48	23.6					
NC(CSC(c1ccccc1)(c1ccccc1)c1ccc2c(c1)OCO2)C(=O)O (stereo not drawn)			0.597	> 67.9	0.392 µM	24.6 µM	4.12	26.8					
CC1=C(C#N)C23C(=O)c4ccccc4C(O)=C2C(=O)C=CC3(O)N1Cc1ccccc1 (stereo not drawn)			25.8	71.6	26.2 µM	> 100 µM	2.84	30.6					
CSc1ccccc1C#C/C=C\C#Cc1ccccc1N1CCCC1=O				> 20.3	> 9.95 µM	> 50 µM		> 19.9					
O=C(CN1CCN(c2cc3c(cc2F)c(=O)c(C(=O)N/N=C/c2ccccc2O)cn3C2CC2)CC1)N/N=C\c1ccccc1O			0.796	> 100	8.57 µM	> 100 µM	0.91	> 100					
Cc1cc(=O)n2[nH]c(-c3ccc(C(C)(C)C)cc3)cc2n1			4.43	79.8	3.74 µM	33.3 µM	15.9	> 100					
O=C(Nc1ccc(F)cc1F)c1cc(I)ccc1O			1.99	6.8	2.37 µM	8.07 µM	2.92	33.1					
COC(=O)Nc1nc2ccc(S(=O)c3ccccc3)cc2[nH]1 (stereo not drawn)			4.38	> 100	19.6 µM	> 100 µM	3.81	> 100					
Fc1ccc(Nc2ncnc3ccc(-c4cnc5[nH]ccc5c4)cc23)cc1Cl			0.592	13.9	2.66 µM	> 45.9 µM	2.98	> 87.8					
O=c1cc(-c2cccc(O)c2)[nH]c2cc3c(cc12)OCO3	54.2	> 100		> 100				4	> 100	> 100		1.07	
CCOC(=O)Nc1nc2ccc(OCC)cc2s1			28.8	> 100	56.7 µM	> 100 µM	7.39	> 100					
CCCCCCCCSC1=CC(=O)c2nc3ccccc3c3ccnc1c23			84.5	> 100	> 100 µM	> 100 µM	97.4	> 100					
CC(C)=CCCc1c(C)ccc2c1C(=O)C(=O)C(C(C)C)=C2		6.65							6.51	7.15			
Cc1cc(=O)[nH]c(NNC(C#N)c2cccc(O)c2)n1 (stereo not drawn)	> 100	> 100							> 100				
O=C(O)c1cc(C(=O)O)cc(N2C(=O)c3ccccc3C2=O)c1				> 100		> 100 µM		> 100				> 100	
Cc1cnc(NC(=O)C(Cc2ccccc2)NC(=O)c2ccccc2)s1 (stereo not drawn)			23.1	82.6	6.69 µM	35.3 µM	4.49	69.2					
CC1(C)OC(=O)C(=Cc2ccc(O)cc2)C(=O)O1	> 100	> 100								> 100			
COc1c2ccoc2c(/C=C/C=O)c2oc(-c3ccccc3)cc(=O)c12			2.14	6.25	7.2 µM	> 100 µM	3.01	> 100					
CC[C@@]12CCCN3CC[C@]4(c5cccc(OC)c5N(C(C)=O)[C@@H]4CC1)[C@H]32				> 100		> 100 µM		> 100				> 100	
